Tests used:
Assay in all cases: cells
Details in all cases: Homo sapiens
A-431 = format: functional, cell-based;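 note: growth inhibition of A-431 cells, determined with a cell viability read-out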
Description: SANGER: Inhibition of human A431 cell growth in a cell viability assay.

BFTC-905 = format: functional, cell-based
Description: SANGER: Inhibition of human BFTC-905 cell growth in a cell viability assay.

NCI-H661 = format: functional, cell-based;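 note: cell viability assay read-out, IC50 being the concentration that inhibits growth of the cells by half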
Description: SANGER: Inhibition of human NCI-H661 cell growth in a cell viability assay.

SW1573 = format: functional, cell-based;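 note: growth inhibition of SW1573 cells, read out with a cell viability assay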
Description: SANGER: Inhibition of human SW1573 cell growth in a cell viability assay.

J82 = format: functional, cell-based;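 note: growth inhibition of J82 cells, read out with a cell viability assay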
Description: SANGER: Inhibition of human J82 cell growth in a cell viability assay.

MKN-45 = format: functional, cell-based;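 note: growth inhibition of human MKN-45 cells, measured with a cell viability assay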
Description: SANGER: Inhibition of human MKN45 cell growth in a cell viability assay.

A2780 = format: functional, cell-based;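 note: growth inhibition of A2780 cells, read out with a cell viability assay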
Description: SANGER: Inhibition of human A2780 cell growth in a cell viability assay.

JEG-3 = format: functional, cell-based;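 note: growth inhibition of human JEG-3 cells, read out with a cell viability assay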
Description: SANGER: Inhibition of human JEG-3 cell growth in a cell viability assay.

SiHa = format: functional, cell-based;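 note: Viability-based readout of growth inhibition in SiHa cells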
Description: SANGER: Inhibition of human SiHa cell growth in a cell viability assay.

HT1197 = format: functional, cell-based, HT-1197
Description: SANGER: Inhibition of human HT-1197 cell growth in a cell viability assay.

COLO-678 = format: functional, cell-based
Description: SANGER: Inhibition of human COLO-678 cell growth in a cell viability assay.

MEL-JUSO = format: functional, cell-based;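 note: growth inhibition of human MEL-JUSO cells, read out with a cell viability assay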
Description: SANGER: Inhibition of human MEL-JUSO cell growth in a cell viability assay.

MKN-1 = format: functional, cell-based;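 note: growth inhibition of human MKN1 cells, read out by a cell viability measurement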
Description: SANGER: Inhibition of human MKN1 cell growth in a cell viability assay.

GP5d = format: functional, cell-based;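 note: growth inhibition of human GP5d cells, read out with a cell viability assay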
Description: SANGER: Inhibition of human GP5d cell growth in a cell viability assay.

OVCAR-3 = format: functional, cell-based;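 note: growth inhibition of human OVCAR-3 cells, determined by a cell viability assay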
Description: SANGER: Inhibition of human OVCAR-3 cell growth in a cell viability assay.

NCI-N87 = format: functional, cell-based;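 note: growth inhibition of human NCI-N87 cells, read out with a cell viability assay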
Description: SANGER: Inhibition of human NCI-N87 cell growth in a cell viability assay.

SK-MES-1 = format: functional, cell-based;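 note: growth inhibition of human SK-MES-1 cells, read out with a cell viability assay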
Description: SANGER: Inhibition of human SK-MES-1 cell growth in a cell viability assay.

G-402 = format: functional, cell-based
Description: SANGER: Inhibition of human G-402 cell growth in a cell viability assay.

NCI-H1693 = format: functional, cell-based;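 note: growth inhibition of the human cell line, read out with a cell viability assay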
Description: SANGER: Inhibition of human NCI-H1693 cell growth in a cell viability assay.

DOK = format: functional, cell-based;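 note: cell viability assay read-out, values reflect inhibition of cell growth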
Description: SANGER: Inhibition of human DOK cell growth in a cell viability assay.

OAW-28 = format: functional, cell-based;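 note: growth inhibition of OAW-28 cells, read out with a cell viability assay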
Description: SANGER: Inhibition of human OAW-28 cell growth in a cell viability assay.

EW-22 = format: functional, cell-based;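 note: growth inhibition of the EW-22 cell line, measured with a cell viability readout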
Description: SANGER: Inhibition of human EW-22 cell growth in a cell viability assay.

KYSE-410 = format: functional, cell-based;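 note: growth inhibition of KYSE-410 cells, measured through a cell viability readout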
Description: SANGER: Inhibition of human KYSE-410 cell growth in a cell viability assay.

MHH-ES-1 = format: functional, cell-based;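 note: cell growth inhibition measured by a cell viability assay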
Description: SANGER: Inhibition of human MHH-ES-1 cell growth in a cell viability assay.

PANC-08-13 = format: functional, cell-based;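 note: cell growth inhibition, measured with a cell viability assay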
Description: SANGER: Inhibition of human PANC-08-13 cell growth in a cell viability assay.

COLO-680N = format: functional, cell-based;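 note: cell viability assay used to measure inhibition of COLO-680N cell growth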
Description: SANGER: Inhibition of human COLO-680N cell growth in a cell viability assay.

GAMG = format: functional, cell-based;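 note: cell growth inhibition measured by a viability assay in the GAMG human cell line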
Description: SANGER: Inhibition of human GAMG cell growth in a cell viability assay.

DoTc2-4510 = format: functional, cell-based
NCI-H2052 = format: functional, cell-based;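 note: growth inhibition of NCI-H2052 cells, read out with a cell viability assay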
Description: SANGER: Inhibition of human NCI-H2052 cell growth in a cell viability assay.

M059J = format: functional, cell-based;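 note: growth inhibition of M059J cells, read out with a cell viability assay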
Description: SANGER: Inhibition of human M059J cell growth in a cell viability assay.

EGI-1 = format: functional, cell-based;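 note: cell viability readout used to gauge growth inhibition of EGI-1 cells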
Description: SANGER: Inhibition of human EGI-1 cell growth in a cell viability assay.

MeWo = format: functional, cell-based;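 note: growth inhibition of MeWo cells, determined by a cell viability readout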
Description: SANGER: Inhibition of human Mewo cell growth in a cell viability assay.

NCI-H1993 = format: functional, cell-based;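 note: growth inhibition of the cancer cell line, assessed with a cell viability assay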
Description: SANGER: Inhibition of human NCI-H1993 cell growth in a cell viability assay.

T98G = format: functional, cell-based;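 note: growth inhibition of T98G cells, read out by a cell viability assay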
Description: SANGER: Inhibition of human T98G cell growth in a cell viability assay.

SK-OV-3 = format: functional, cell-based;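 note: growth inhibition of SK-OV-3 human cells, read out with a cell viability assay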
Description: SANGER: Inhibition of human SK-OV-3 cell growth in a cell viability assay.

HT-1080 = format: functional, cell-based
Description: SANGER: Inhibition of human HT-1080 cell growth in a cell viability assay.

RVH-421 = format: functional, cell-based
Description: SANGER: Inhibition of human RVH-421 cell growth in a cell viability assay.

SAS = format: functional, cell-based;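 note: growth inhibition of SAS cells, read out with a cell viability assay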
Description: SANGER: Inhibition of human SAS cell growth in a cell viability assay.

NCI-H1651 = format: functional, cell-based;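 note: Read-out is a cell viability assay, with IC50 expressing inhibition of NCI-H1651 cell growth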
Description: SANGER: Inhibition of human NCI-H1651 cell growth in a cell viability assay.

KYSE-510 = format: functional, cell-based;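 note: cell viability readout used to measure how strongly growth of the cell line is suppressed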
Description: SANGER: Inhibition of human KYSE-510 cell growth in a cell viability assay.

NCI-H2405 = format: functional, cell-based;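 note: growth inhibition of the human cell line, read out with a cell viability assay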
Description: SANGER: Inhibition of human NCI-H2405 cell growth in a cell viability assay.

SNU-387 = format: functional, cell-based
Description: SANGER: Inhibition of human SNU-387 cell growth in a cell viability assay.

BXPC-3 = format: functional, cell-based;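 note: growth inhibition of human BxPC-3 cells, read out by a cell viability assay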
Description: SANGER: Inhibition of human BxPC-3 cell growth in a cell viability assay.

Capan-2 = format: functional, cell-based;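 note: Capan-2 cell growth inhibition, read out with a viability assay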
Description: SANGER: Inhibition of human Capan-2 cell growth in a cell viability assay.

MDA-MB-231 = format: functional, cell-based
Description: SANGER: Inhibition of human MDA-MB-231 cell growth in a cell viability assay.

UACC-893 = format: functional, cell-based
Description: SANGER: Inhibition of human UACC-893 cell growth in a cell viability assay.

LB996-RCC = format: functional, cell-based
Description: SANGER: Inhibition of human LB996-RCC cell growth in a cell viability assay.

CAL-72 = format: functional, cell-based;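 note: cell viability assay measuring inhibition of proliferation in the CAL-72 cell line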
Description: SANGER: Inhibition of human CAL-72 cell growth in a cell viability assay.

CC[C@@]1(O)C(=O)OCc2c1cc1n(c2=O)Cc2cc3ccccc3nc2-1 [CAMPTOTHECIN] showed an IC50 (A-431) of over 100 nM, an IC50 (BFTC-905) of 0.14 nM and an IC50 (NCI-H661) of 13.6 nM. It also gave an IC50 (SW1573) of 2.35 nM, an IC50 (J82) of 4.72 nM and an IC50 (MKN-45) of 27.5 nM. It also gave an IC50 (A2780) of 2.9 nM, an IC50 (JEG-3) of 13.1 nM and an IC50 (SiHa) of 86.9 nM. For the same compound, the IC50 (HT1197) was over 100 nM, the IC50 (COLO-678) was over 100 nM and the IC50 (MEL-JUSO) was 35.6 nM. For the same compound, the IC50 (MKN-1) was 37.9 nM, the IC50 (GP5d) was 12.5 nM and the IC50 (OVCAR-3) was over 100 nM. The IC50 (NCI-N87) was 8.74 nM, the IC50 (SK-MES-1) was 10.8 nM and the IC50 (G-402) was 24.5 nM. For the same compound, the IC50 (NCI-H1693) was 26.7 nM, the IC50 (DOK) was 18.9 nM and the IC50 (OAW-28) was 7.26 nM. The IC50 (EW-22) was 0.557 nM, the IC50 (KYSE-410) was 78.1 nM and the IC50 (MHH-ES-1) was 0.129 nM. The IC50 (PANC-08-13) was 44.9 nM, the IC50 (COLO-680N) was 72.4 nM and the IC50 (GAMG) was 1.53 nM. It also gave an IC50 (DoTc2-4510) of 4.03 nM, an IC50 (NCI-H2052) of 28.3 nM and an IC50 (M059J) of 4.1 nM. The IC50 (EGI-1) was 25.1 nM, the IC50 (MeWo) was 47 nM and the IC50 (NCI-H1993) was over 100 nM. It also gave an IC50 (T98G) of 27.2 nM, an IC50 (SK-OV-3) of over 100 nM and an IC50 (HT-1080) of 0.394 nM. For the same compound, the IC50 (RVH-421) was 71.5 nM, the IC50 (SAS) was 1.24 nM and the IC50 (NCI-H1651) was 14.9 nM. It also gave an IC50 (KYSE-510) of 6.75 nM and an IC50 (NCI-H2405) of 58.5 nM.
For Cn1c(=O)n(-c2ccc(C(C)(C)C#N)cc2)c2c3cc(-c4cnc5ccccc5c4)ccc3ncc21 [DACTOLISIB], the IC50 (A-431) was 90 nM, the IC50 (BFTC-905) was 60.7 nM and the IC50 (NCI-H661) was 151 nM. The IC50 (SW1573) was 109 nM, the IC50 (J82) was 185 nM and the IC50 (A2780) was 106 nM. It also gave an IC50 (JEG-3) of 84.1 nM, an IC50 (SNU-387) of 104 nM and an IC50 (SiHa) of 329 nM. It also gave an IC50 (HT1197) of 238 nM, an IC50 (COLO-678) of over 2000 nM and an IC50 (MKN-1) of 2.8 nM. The IC50 (GP5d) was 434 nM, the IC50 (OVCAR-3) was 599 nM and the IC50 (BXPC-3) was 81.5 nM. It also gave an IC50 (NCI-N87) of 111 nM, an IC50 (SK-MES-1) of 53.3 nM and an IC50 (G-402) of 22.2 nM. The IC50 (NCI-H1693) was 136 nM, the IC50 (DOK) was 56 nM and the IC50 (OAW-28) was over 2000 nM. It also gave an IC50 (Capan-2) of over 2000 nM, an IC50 (EW-22) of 46.2 nM and an IC50 (KYSE-410) of 59.5 nM. It also gave an IC50 (MHH-ES-1) of 51.9 nM, an IC50 (PANC-08-13) of 58 nM and an IC50 (MDA-MB-231) of 105 nM. The IC50 (COLO-680N) was 111 nM, the IC50 (GAMG) was 19.5 nM and the IC50 (DoTc2-4510) was 1070 nM. For the same compound, the IC50 (NCI-H2052) was 175 nM, the IC50 (M059J) was 63.6 nM and the IC50 (EGI-1) was 16.4 nM. The IC50 (UACC-893) was 406 nM, the IC50 (MeWo) was 12 nM and the IC50 (LB996-RCC) was 47.2 nM. For the same compound, the IC50 (NCI-H1993) was over 2000 nM, the IC50 (T98G) was 29.9 nM and the IC50 (SK-OV-3) was 100 nM. It also gave an IC50 (HT-1080) of 21.9 nM, an IC50 (CAL-72) of 293 nM and an IC50 (RVH-421) of 53.7 nM. It also gave an IC50 (SAS) of 653 nM, an IC50 (NCI-H1651) of 344 nM and an IC50 (KYSE-510) of 65.8 nM. For the same compound, the IC50 (NCI-H2405) was 54.9 nM.
In the case of C[C@]12O[C@H](C[C@]1(O)CO)n1c3ccccc3c3c4c(c5c6ccccc6n2c5c31)CNC4=O [LESTAURTINIB], the IC50 (A-431) is reported as 387 nM, the IC50 (BFTC-905) is reported as 250 nM and the IC50 (NCI-H661) is reported as over 2000 nM. For the same compound, the IC50 (SW1573) was 1070 nM, the IC50 (J82) was over 2000 nM and the IC50 (MKN-45) was 1120 nM. The IC50 (A2780) was 94 nM, the IC50 (JEG-3) was 730 nM and the IC50 (SNU-387) was 601 nM. The IC50 (SiHa) was over 2000 nM, the IC50 (HT1197) was over 2000 nM and the IC50 (COLO-678) was over 2000 nM. The IC50 (MEL-JUSO) was 503 nM, the IC50 (MKN-1) was over 2000 nM and the IC50 (GP5d) was 177 nM. For the same compound, the IC50 (OVCAR-3) was over 2000 nM, the IC50 (BXPC-3) was over 2000 nM and the IC50 (NCI-N87) was over 2000 nM. The IC50 (SK-MES-1) was 46.5 nM, the IC50 (G-402) was 1100 nM and the IC50 (NCI-H1693) was over 2000 nM. For the same compound, the IC50 (DOK) was 297 nM, the IC50 (OAW-28) was over 2000 nM and the IC50 (Capan-2) was over 2000 nM. For the same compound, the IC50 (EW-22) was 862 nM, the IC50 (KYSE-410) was 1410 nM and the IC50 (MHH-ES-1) was 321 nM. The IC50 (PANC-08-13) was over 2000 nM, the IC50 (MDA-MB-231) was 586 nM and the IC50 (COLO-680N) was over 2000 nM. The IC50 (GAMG) was 382 nM, the IC50 (DoTc2-4510) was over 2000 nM and the IC50 (NCI-H2052) was 488 nM. For the same compound, the IC50 (M059J) was 516 nM, the IC50 (EGI-1) was 572 nM and the IC50 (UACC-893) was over 2000 nM. The IC50 (MeWo) was 718 nM, the IC50 (NCI-H1993) was over 2000 nM and the IC50 (T98G) was 327 nM. It also gave an IC50 (SK-OV-3) of 224 nM, an IC50 (HT-1080) of 40.3 nM and an IC50 (CAL-72) of over 2000 nM. For the same compound, the IC50 (RVH-421) was 244 nM, the IC50 (SAS) was 958 nM and the IC50 (NCI-H1651) was over 2000 nM. For the same compound, the IC50 (KYSE-510) was over 2000 nM and the IC50 (NCI-H2405) was 1820 nM.
